Measurements as given in patent US8481523B2, “Biocide composition comprising pyrithione and pyrrole derivatives” (Arch Chemicals, Inc., priority 2006, dated 2013).
Entries after “also recorded” stand apart in the source; their conditions may differ.

System: barnacles
Test: Paint efficacy testing: coated fiberglass rods suspended in the ocean, number of barnacles counted monthly
Assay type: in vivo
Conditions: paint formulations on rods in the ocean, Beaufort, N.C. coast, 2004
Method: A series of nine paint formulations containing 4-bromo-2-(4-chlorophenyl)-5-(trifluoromethyl)-1H-pyrrole-3-carbonitrile (referred to in below table as Pyrrole) and zinc pyrithione (ZPT) were tested by Duke University off the Beaufort, N.C. coast in 2004 for their antifouling effectiveness against barnacles and other fouling organisms. The formulations were created in the laboratory by the addition of various amounts of biocides to a resin base-formulation (vinyl resin/wood rosin with Zn oxide filler). Formulations include 4-bromo-2-(4-chlorophenyl)-5-(trifluoromethyl)-1H-pyrrole-3-carbonitrile alone and in combination with ZPT. A solvent based zinc oxide coating was used as a control. Unprimed fiberglass rods (8 mm diameter×11 cm length) were dip-coated with each formulation (5 rods/formulation) and suspended from a test rack in the ocean (one-meter below the surface). Rods were evaluated each month for number of barnacles and bryozoans. The most promising results came from the formulations in which 4-bromo-2-(4-chlorophenyl)-5-(trifluoromethyl)-1H-pyrrole-3-carbonitrile was blended with ZPT (See Table 1 below).

SMILES: N#Cc1c(-c2ccc(Cl)cc2)[nH]c(C(F)(F)F)c1Br [4-bromo-2-(4-chlorophenyl)-5-(trifluoromethyl)-1H-pyrrole-3-carbonitrile]
- antifouling effectiveness against barnacles and other fouling organisms (in words): effective antifouling agent for hard fouling organisms such as barnacles; also recorded: performs better with ZPT as a co-biocide than it does alone
